ChEMBL document CHEMBL1121588, “Studies on anticoccidial agents. 13. Synthesis and anticoccidial activity of nitropyridine-2- and -3-sulfonamides and derivatives” (1980)

Experiments:
Format in all cases: functional
[1] = test system: Eimeria tenella; test: Anticoccidial activity against Eimeria tenella using amprolium resistant strain at a concentration of 0.015% drug in feed
[2] = test system: Eimeria tenella; test: Anticoccidial activity against Eimeria tenella using amprolium resistant strain at a concentration of 0.007% drug in feed
[3] = test system: Eimeria tenella; test: Anticoccidial activity against Eimeria tenella using amprolium resistant strain at a concentration of 0.0035% drug in feed
[4] = test system: Eimeria tenella; test: Anticoccidial activity against Eimeria tenella using amprolium resistant strain at a concentration of 0.00175% drug in feed

SMILES	Activity [1]	other results
CC(=O)NS(=O)(=O)c1cncc([N+](=O)[O-])c1	186	
CC(C)OCCCNS(=O)(=O)c1cncc([N+](=O)[O-])c1	193	
O=[N+]([O-])c1cncc(S(=O)(=O)NCCO)c1	120	
NS(=O)(=O)c1cc[n+]([O-])cc1	120	
NS(=O)(=O)c1ccc[n+]([O-])c1	160	
CC(C)(C)C(=O)NS(=O)(=O)c1cncc([N+](=O)[O-])c1	122	
NS(=O)(=O)c1cnccc1[N+](=O)[O-]	144	
NS(=O)(=O)c1cncc([N+](=O)[O-])c1	194	Activity [2]: 195; Activity [3]: 194; Activity [4]: 158
CCOCCN(CC)S(=O)(=O)c1cncc([N+](=O)[O-])c1	178	
CCCCCCCC(=O)NS(=O)(=O)c1cncc([N+](=O)[O-])c1	187	
CCOCCNS(=O)(=O)c1cncc([N+](=O)[O-])c1	192	
CCCCCCCCNS(=O)(=O)c1cncc([N+](=O)[O-])c1	126	
NS(=O)(=O)c1ccc([N+](=O)[O-])nc1	120	
NS(=O)(=O)c1cccnc1[N+](=O)[O-]	144	
CCCCN(CC)S(=O)(=O)c1cncc([N+](=O)[O-])c1	175	
NS(=O)(=O)c1cccc[n+]1[O-]	183	
NS(=O)(=O)c1cccc([N+](=O)[O-])n1	120	
O=[N+]([O-])c1cncc(S(=O)(=O)Nc2ccccc2)c1	86	
NS(=O)(=O)c1ccc([N+](=O)[O-])cn1	32	
CCCc1ncc(C[n+]2ccccc2C)c(N)n1.[Cl-]	95	
CN(C)S(=O)(=O)c1cncc([N+](=O)[O-])c1	175	
O=[N+]([O-])c1cncc(S(=O)(=O)NCc2ccccc2)c1	168	
CNS(=O)(=O)c1cncc([N+](=O)[O-])c1	195	
NC(=O)c1cncc([N+](=O)[O-])c1	198	Activity [2]: 186; Activity [3]: 158
CCNS(=O)(=O)c1cncc([N+](=O)[O-])c1	190	
NS(=O)(=O)c1ncccc1[N+](=O)[O-]	55	
NS(=O)(=O)c1cc([N+](=O)[O-])ccn1	107	
